Legend:
[1] = Test of the release property in soil; type: physicochemical; settings: sand soil, 65 days; rate based on the original amount
Description: 7.5 g of the encapsulated insecticide produced in Example 2 was dispersed in 100 mℓ of water, and 1 mℓ of the dispersion was added to 30 g of soil (sand soil of Mt. Kannan) which had been put into a 100-mℓ beaker, and thoroughly mixed therewith.
Separately from this, 1500 mg of the chlorpyrifos was dissolved into 100 mℓ of acetone and 1 mℓ of the solution was added to 30 g of soil (same as above) and thoroughly mixed therewith.
The beaker was covered with aluminium foil, and water was sometimes sprayed on the soil to prevent the soil from drying. 65 days after, the amount of chlorpyrifos in the beaker was measured.
In order to measure the total amount of chlorpyrifos, 150 mℓ of acetone and 2 mℓ of concentrated hydrochloric acid was added to 30 g of the soil. The mixture was refluxed under heating in a water bath at 65°C for 1 hour, and after cooling filtered through No. 5C filter paper. The residue was further washed with 100 mℓ of acetone, and diluted so that the total volume was 250 mℓ to measure the amount of chlorpyrifos by high-speed liquid chromatography.
The amount of chlorpyrifos liberated was measured in the following manner. A mixture solvent of methanol and water (60/40) was added to 30 g of the soil. After the mixture was shaken for 10 minutes, the mixture was filtered through No. 5C filter paper. […]

[2] = Acute dermal toxicity test; settings: Wistar, rat, in vivo, topical or ocular, Wister male rats (8 weeks old), read-out: Acute dermal toxicity LD₅₀
Description: (§1) Tests of the acute oral toxicity and the acute dermal toxicity of the encapsulated insecticide produced in Example 2 and the acute toxicity thereof to fish were carried out as follows.
(§2) A group of 5 ICR male mice (5 weeks old) and a group of 5 Wister male rats (8 weeks old) were used for the acute oral toxicity test and the acute dermal toxicity test, respectively. Tests were carried out to obtain LD₅₀ values in accordance with the toxicity guidance of agricultural chemicals (Agricultural production No. 59 - 4200) (Notification of Director-General, Agricultural Production Bureau, 59 Nohsan No. 4200 dated January 28, 1985) issued by the Agricultural and Fisheries Ministry. The test for acute toxity to fish was carried out using groups of carp, each group consisting of 10 carp, in accordance with the Circular Notice No. 2735 issued by Director of the Agricultural Administration Bureau in the Agricultural and Fisheries Ministry to obtain the TLm of each group.

carp = assay: Acute toxicity to fish; type: in vivo
Description: as §1, §2

Acute oral toxicity test = settings: mouse, in vivo, ICR male mice (5 weeks old), read-out: Acute oral toxicity LD₅₀
Description: as §1, §2

## CCOP(=S)(OCC)Oc1nc(Cl)c(Cl)cc1Cl [Technical, 0,0-diethyl-0-3,5,6-trichloro-2-pyridyl-phosphorothioate]
[1]
  Amount of chlorpyrifos remaining in the soil: Total amount of chlorpyrifos: 41 wt%
[2]
  LD50: 202 mg/kg
carp
  Toxicity to fish TLm (48 h): 0.13 ppm
Acute oral toxicity test
  LD50: 178 mg/kg

— patent EP0368576B1, “Insecticide comprising a suspension of microcapsules containing chlorpyrifos” (priority 1988, dated 1990)
